# Structures can show the parent of a compound that is named as a salt.
# Molecular target: T1, 5-HT2 receptors (Rattus norvegicus, UniProt P14842)
# T1 construct: essentially as described by Leysen et al. (Mol. Pharmacol. 21, 301-14, 1982) using; from tissue
# Assay: Affinity to 5-HT2 receptors (Test 1, 3H-ketanserin binding)
# Details: 3H-ketanserin as ligand
# Procedure: Test 1. Affinity to 5-HT2 receptors.
# The binding assay is carried out essentially as described by Leysen et al. (Mol. Pharmacol. 21, 301-14, 1982) using ^3 H-ketanserin as ligand.
# T1 sequence (P14842 whole entry): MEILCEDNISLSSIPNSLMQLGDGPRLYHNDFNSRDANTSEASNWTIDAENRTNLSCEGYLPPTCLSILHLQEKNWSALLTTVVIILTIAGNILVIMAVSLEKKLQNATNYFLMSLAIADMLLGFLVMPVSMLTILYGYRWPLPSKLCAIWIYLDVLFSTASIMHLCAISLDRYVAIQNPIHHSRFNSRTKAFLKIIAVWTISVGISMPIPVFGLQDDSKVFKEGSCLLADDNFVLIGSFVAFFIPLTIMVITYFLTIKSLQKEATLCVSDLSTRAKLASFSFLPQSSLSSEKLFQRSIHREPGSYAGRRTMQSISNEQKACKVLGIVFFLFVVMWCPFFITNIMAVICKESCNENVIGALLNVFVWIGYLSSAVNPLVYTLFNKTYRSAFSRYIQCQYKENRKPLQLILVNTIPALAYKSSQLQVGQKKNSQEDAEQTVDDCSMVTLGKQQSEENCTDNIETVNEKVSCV
compound,measurement,value
"Fc1ccc(N(CCCN2CCN(c3ccccn3)CC2)c2ccc(F)cc2)cc1 [1:1, 1-{3-[Bis-(4-fluorophenyl)amino]propyl}-4-(2-pyridyl)-piperazine-dihydrochloride]",Ki,18 nM
"Fc1ccc(C(OCCN2CCN(c3ccccn3)CC2)c2ccc(F)cc2)cc1 [3:1, 4-{2-[(4.4'-Difluorobenzhydryl)oxyl]ethyl}-1-(2-pyridyl)piperazine dihydrochloride]",Ki,11 nM
